{"source": "patent US20240158413A1", "about": "“FUSED POLYCYCLIC SUBSTITUTED 5-CARBOXYLIC ACID THIENOPYRIMIDINE DIONE COMPOUND AND USE THEREOF” (SOTER BIOPHARMA PTE. LTD., priority 2021, published 2024)", "key": {"[1]": {"assay": "Pharmacokinetic evaluation in mice (plasma)", "format": "in vivo", "conditions": "mouse, male CD-1 mice", "method": "Objective of assay: To study the in vivo pharmacokinetic properties of the compound of the present disclosure in mice.\nEach assay compound was mixed with DMAC respectively, and vortexed for 2 minutes. The solution of the assay compound in DMAC was mixed and vortexed for 2 minutes to prepare a clear solution of 10 mg/mL. 0.0600 mL of 10 mg/mL solution was added to 0.300 mL of Solutol, and the mixture was vortexed for 2 minutes. Then 2.400 mL of normal saline was added, and the mixture was vortexed for 2 minutes to obtain a clear solution of 0.2 mg/mL, which was used for administration in PO group, 0.500 mL of the solution for administration in PO group was vortexed for 2 minutes, and 0.0500 mL of DMAC was added. The mixture was vortexed for 2 minutes, and then 0.0500 mL of solutol was added. The mixture was vortexed for 2 minutes, and finally 0.400 mL of normal saline was added. The mixture was vortexed for two minutes to give a clear solution of 0.1 mg/mL, which was filtered through a microporous membrane to give a solution for administration in injection (IV) group.\nFour male CD-1 mice were divided into two groups. The animals in the first group were administered intravenously once at a dose of 0.5 mg/kg, wherein the vehicle was 10% DMAC/10% Solutol/80% normal saline, and the administration volume was 5 mL/kg. The animals in the second group were administered orally 2 mg/kg of the assay compound by oral gavage, wherein the oral vehicle was 10% DMAC/10% Solutol/80% normal saline, and the oral volume was 10 mL/kg. Whole blood was collected at 0.033 (IV injection only), 0.083, 0.25, 0.5, 1, 2, 4 and 12 hours post-dose. The whole blood was centrifuged at 3200 g at 2-8° C. for 10 min to obtain plasma. The concentration of the assay compound in plasma was determined by ILC/MS/MS method, and the pharmacokinetic parameters were calculated by Phoenix WinNonlin software.\nThe parameters have the following meanings: IV: intravenous injection; PO: oral administration; C0: initial plasma drug concentration; Cmax: maximum drug concentration in systemic circulation; Tmax: time required to reach Cmax; T1/2: half-life; Vdss: apparent volume of distribution; Cl: clearance rate; AUC0-last: area under the drug-time curve."}, "[2]": {"test_system": "endometriotic lesion in mice", "assay": "In vivo efficacy evaluation in a mouse model of endometriosis", "excerpt": "Objective of assay: To evaluate the efficacy of the compound of the present disclosure in a mouse model of endometriosis.\nAnimal estrous cycle detection in 8-week-old C57BL6/J female mice: Through vaginal smear observation, mice that met the specific estrous cycle on the day of the assay were selected according to the actual smear results because the entire estrous cycle was about 4 days. Modeling: The uterine horns of donor mice in an estrous cycle were excised, and opened longitudinally. The excised biopsies were cut to a size of 2×2 mm. Recipient mice were anesthetized with isoflurane gas, and a 1 cm incision was made along the midline to expose the abdominal cavity. Endometriotic mice: four uterine fragments of donors were sutured to the peritoneal wall of mice in an estrous cycle; sham-operated mice: abdominal fat fragments of similar size were sutured. The grafted tissue as well as the abdominal muscle and skin were sutured using 8-0 black silk thread. Sham group (sham-operation group): the abdominal cavity of each mouse in the Sham group was opened to transplant fat fragments, and the rest of the steps were the same.\nAfter 4 weeks of modelmg, a second laparotomy was performed, and the ectopic lesion volume (V1) was measured using a vernier caliper and calculated to determine the success of the modeling. Twelve mice with relatively uniform V1 were selected and divided into 2 groups with 6 nice in each group: Vehicle (vehicle control group) and drug group.\nSham group (sham-operation group, 6 animals): normal feeding; Vehicle group (vehicle control group, 6 animals); vehicle was intragastrically administered once a day for 8 consecutive weeks. […]\nAfter 8 weeks of administration, samples were obtained from the mice: the ectopic lesion volume (V2) was measured using a vernier caliper and calculated. The inhibition rate was calculated using a calculation formula of: ectopic lesion volume V=π/6×length×width×height, wherein length represents the length of an ectopic lesion, width represents the width of an ectopic lesion, and height represents the height of an ectopic lesion;"}, "[3]": {"molecular_target": "human gonadotropin-releasing hormone receptor (Homo sapiens (Human), UniProt P30968)", "sequence (P30968 whole entry)": "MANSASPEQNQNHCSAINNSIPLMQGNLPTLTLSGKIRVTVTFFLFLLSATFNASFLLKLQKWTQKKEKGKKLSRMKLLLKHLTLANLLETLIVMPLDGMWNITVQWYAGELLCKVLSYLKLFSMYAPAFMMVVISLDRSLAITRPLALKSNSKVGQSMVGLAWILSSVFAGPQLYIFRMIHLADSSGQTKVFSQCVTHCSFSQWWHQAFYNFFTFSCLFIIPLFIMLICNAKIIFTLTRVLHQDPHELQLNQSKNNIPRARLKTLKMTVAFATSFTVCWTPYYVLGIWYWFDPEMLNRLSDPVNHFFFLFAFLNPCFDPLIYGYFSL", "assay": "FLIPR calcium flow assay of inhibitory activity on gonadotropin-releasing hormone receptor in GnRH/HEK293 cells", "format": "cell-based", "conditions": "Ca2+ flow, agonist Leuprolide acetate, read-out: IC50 on inhibiting the activity of human gonadotropin-releasing hormone receptor", "method": "Objective of assay: to detect the inhibitory activity of assay compounds on gonadotropin-releasing hormone receptor at the cellular level using FLIPR detection technology.\nGnRH/HEK293 (human embryonic kidney cell 293) cultured cells in the logarithmic growth phase were washed with DPBS (Dulbecco's phosphate buffered saline) buffer, and an appropriate amount of 0.05% EDTA (ethylenediaminetetraacetic acid)-trypsin was added. The cells were placed in a carbon dioxide incubator at 37° C. for digestion for 1-2 minutes, and then removed from the incubator. A medium was added to the cells to terminate the digestion. Cells were dispersed by repeated pipetting and harvested by centrifugation. […]\nOn the next day, 20 μL, of 2×Fluo-4Direct™ buffer was added to each well, and the plate was incubated in a 5% CO2, 37° C. incubator for 50 minutes. […] The fluorescence signal was read. Then 10 μL of the reference compound as an agonist was added, and the fluorescent signal was read. EC50 was calculated, and the agonist with a concentration of 6×EC50 was prepared.\n2 mM assay compounds and an appropriate concentration of reference compound were serially diluted 4-fold to 10 concentrations in ECHO, and 900 nL of that was transferred to a compound plate. […] The fluorescent signal was read. Then 10 μL of agonist with a concentration of 6×EC50 was added to the cell plate and the fluorescent signal was read. […]"}}, "data": [{"smiles": "O=C(O)c1scc2[nH]c(=O)n(-c3cc4c(cc3F)OCCCOc3ccc(F)c(F)c3CO4)c(=O)c12", "note": "[Compound 1]", "values": [{"measurement": "AUC(0-t)", "setting": "[1]; IV 0.5 mg/kg", "result": 48.3, "unit": "µM·h"}, {"measurement": "C0", "setting": "[1]; IV 0.5 mg/kg", "result": 13.5, "unit": "µM"}, {"measurement": "clearance", "setting": "[1]; IV 0.5 mg/kg", "result": 0.332, "unit": "mL/min/kg"}, {"measurement": "half-life", "setting": "[1]; IV 0.5 mg/kg", "result": 5.66, "unit": "h"}, {"measurement": "Vd", "setting": "[1]; IV 0.5 mg/kg, read-out: Vdss", "result": 0.159, "unit": "L/kg"}, {"measurement": "bioavailability", "setting": "[1]; PO 2 mg/kg vs IV 0.5 mg/kg", "result": 95.3, "unit": "%"}, {"measurement": "AUC(0-t)", "setting": "[1]; PO 2 mg/kg", "result": 143, "unit": "µM·h"}, {"measurement": "Cmax", "setting": "[1]; PO 2 mg/kg", "result": 25.8, "unit": "µM"}, {"measurement": "Tmax", "setting": "[1]; PO 2 mg/kg", "result": 0.5, "unit": "h"}, {"measurement": "half-life", "setting": "[1]; PO 2 mg/kg", "result": 5.03, "unit": "h"}, {"measurement": "Volume of endometriotic lesion in mice V1", "setting": "[2]; Mean ± SD, n = 6, 4 weeks after modeling, before administration (baseline)", "result": "9.89 ± 1.51", "unit": "mm^3"}, {"measurement": "Volume of endometriotic lesion in mice V2", "setting": "[2]; Mean ± SD, n = 6, after 8 weeks of 100 mpk intragastric once daily", "result": "6.78 ± 4.46", "unit": "mm^3"}, {"measurement": "Inhibition rate", "setting": "[2]; ectopic lesion volume, 100 mpk intragastric once daily for 8 weeks", "result": 107.5, "unit": "%"}, {"measurement": "IC50", "setting": "[3]", "result": 3.2, "unit": "nM"}]}]}
